Test [1] addresses Human immunodeficiency virus type 1 protease (Human immunodeficiency virus 1, UniProt Q72874). Put plainly: Inhibitory activity against purified HIV protease.
Test [2] concerns MT4. Put plainly: Cytotoxicity against MT-4 cells using a cytopathicity assay. It is filed as functional, Homo sapiens. Background: Cytopathic effects are the visible damage that an infection or toxin causes in cultured cells.
The test system of test [3] is Human immunodeficiency virus 1. In words: Anti-HIV activity against MT-4 cells using a cytopathicity assay. Type of test: functional, organism-based. Particulars: Human immunodeficiency virus 1, MT4; call rule not given here.
In test [4] the test system is MT4. In words: Anti-HIV activity was determined against MT-4 cells using a cytopathicity assay; NE means no effect. Type of test: functional, cell-based, Homo sapiens.

SMILES strings stand for the structures. A value given as a limit tells only on which side of the number the result lay.

The source of these data is ChEMBL document CHEMBL1128078, “Evaluation of substituted benzamides as P2 ligands for symmetry-based inhibitors of HIV protease” (Bioorg Med Chem Lett, 1995).

For `Cc1c(O)cccc1C(=O)N[C@@H](Cc1ccccc1)[C@@H](O)C[C@H](Cc1ccccc1)NC(=O)OC(C)(C)C`, it took 1.6 nM to reach half-maximal inhibition in test [1] (IC50). For the same compound, in the test on MT4 [2], the CCIC50 came out at 47 µM. The EC50 (in general, the concentration at which the effect is half-maximal) in test [3] amounted to 1.2 µM.

With `COc1cc(C(=O)N[C@@H](Cc2ccccc2)[C@@H](O)C[C@H](Cc2ccccc2)NC(=O)OC(C)(C)C)ccc1N`, half-maximal inhibition in test [1] (IC50) required 7.5 nM. The compound further had a CCIC50 with MT4 [2] of 38 µM. Also, in test [3], the EC50 is 3.2 µM.

Turning to `O=C(N[C@@H](Cc1ccccc1)[C@@H](O)C[C@H](Cc1ccccc1)NC(=O)c1ccc(O)cc1Cl)OCc1ccccc1`, the IC50 (in general, the midpoint of a concentration-inhibition curve) in test [1] worked out at 1.3 nM. The same compound showed a CCIC50 with MT4 [2] of 18 µM. The EC50 in test [3] came out at 2.2 µM.

`CC(C)(C)OC(=O)N[C@@H](Cc1ccccc1)C[C@H](O)[C@H](Cc1ccccc1)NC(=O)c1cc(O)cc(O)c1` displayed an IC50 in test [1] of 51 nM. In the test on MT4 [2], this compound gave a CCIC50 of 53 µM. The same compound registered an EC50 in test [3] of 11 µM.

With `CC(C)(C)OC(=O)N[C@@H](Cc1ccccc1)C[C@H](O)[C@H](Cc1ccccc1)NC(=O)c1ccc(N)c(O)c1`, the EC50 result in the test on MT4 [4] was “Not Active”. The compound further registered an IC50 in test [1] of 11 nM. For the same compound, the CCIC50 in the test with MT4 [2] stood at 11 µM.

Turning to `CC(C)(C)OC(=O)N[C@@H](Cc1ccccc1)C[C@H](O)[C@H](Cc1ccccc1)NC(=O)c1cc(N)cc(N)c1`, in the test with MT4 [4], the EC50 entry was “Not Active”. 250 nM corresponded to half-maximal inhibition in test [1] (IC50). The CCIC50 in the test with MT4 [2] was determined as 92 µM.

Consider `COc1cc(C(=O)N[C@@H](Cc2ccccc2)[C@@H](O)C[C@H](Cc2ccccc2)NC(=O)OC(C)(C)C)ccc1O`, for which the IC50 in test [1] is 3.3 nM. The CCIC50 in the test with MT4 [2] is 43 µM. The compound also registered an EC50 in test [3] of 2.8 µM.

In test [3], `CC(C)c1nc(CN(C)C(=O)N[C@H](C(=O)N[C@@H](Cc2ccccc2)C[C@H](O)[C@H](Cc2ccccc2)NC(=O)OCc2cncs2)C(C)C)cs1` [RITONAVIR] came in with an EC50 of 0.022 µM.

On to `CC(C)(C)OC(=O)N[C@@H](Cc1ccccc1)C[C@H](O)[C@H](Cc1ccccc1)NC(=O)c1c(Cl)ccc(N)c1Cl`, for which inhibition in test [1] was half-maximal at 31 nM (IC50).

As to `CC(C)(C)OC(=O)N[C@@H](Cc1ccccc1)C[C@H](O)[C@H](Cc1ccccc1)NC(=O)c1cc(N)ccc1Cl`, in test [1], 3.3 nM corresponded to half-maximal inhibition (IC50). In the test with MT4 [2], this compound had a CCIC50 of more than 100 µM. Further, the EC50 in test [3] was 1.8 µM.

In the case of `CC(C)(C)OC(=O)N[C@@H](Cc1ccccc1)C[C@H](O)[C@H](Cc1ccccc1)NC(=O)c1cccc(N)c1Cl`, half-maximal inhibition in test [1] (IC50) was put at 5.3 nM. In addition, the CCIC50 with MT4 [2] came out at 55 µM. This compound had an EC50 in test [3] of 3.1 µM.

`Nc1ccc(C(=O)N[C@@H](Cc2ccccc2)C[C@H](O)[C@H](Cc2ccccc2)NC(=O)OCc2ccccc2)cc1O` gave an IC50 in test [1] of 22 nM. For the same compound, the CCIC50 in the test on MT4 [2] was 18 µM. Besides, the EC50 in test [3] was more than 10 µM.

Turning to `CC(C)(C)OC(=O)N[C@@H](Cc1ccccc1)C[C@H](O)[C@H](Cc1ccccc1)NC(=O)c1cc(O)ccc1Cl`, the midpoint of inhibition in test [1], the IC50, lay at 12 nM. The CCIC50 with MT4 [2] turned out to be 19 µM. The response in test [3] was half-maximal at 3.7 µM (EC50).

As for `CC(C)(C)OC(=O)N[C@@H](Cc1ccccc1)C[C@H](O)[C@H](Cc1ccccc1)NC(=O)c1c(Cl)cccc1Cl`, the IC50 in test [1] came to 67 nM. In the test with MT4 [2], this compound gave a CCIC50 of 19 µM. Further, in test [3], the EC50 is more than 10 µM.

Compound `CC(C)(C)OC(=O)N[C@@H](Cc1ccccc1)C[C@H](O)[C@H](Cc1ccccc1)NC(=O)c1cccc(O)c1` came in with an IC50 in test [1] of 3.4 nM. Further, in the test with MT4 [2], the CCIC50 was found to be 45 µM. This compound came in with an EC50 in test [3] of 1.6 µM.

In the case of `O=C(N[C@@H](Cc1ccccc1)C[C@H](O)[C@H](Cc1ccccc1)NC(=O)OCc1ccccc1)OCc1ccccc1`, the IC50 in test [1] was 5.6 nM. Further, in the test on MT4 [2], the CCIC50 was more than 100 µM. The EC50 in test [3] was more than 30 µM.

With `CC(C)(C)OC(=O)N[C@@H](Cc1ccccc1)C[C@H](O)[C@H](Cc1ccccc1)NC(=O)c1ccc(O)cc1Cl`, 1.4 nM corresponded to half-maximal inhibition in test [1] (IC50). This compound also showed a CCIC50 with MT4 [2] of 23 µM. Further, it took 1.8 µM to reach a half-maximal effect in test [3] (EC50).

As to `CC(C)(C)OC(=O)N[C@@H](Cc1ccccc1)C[C@H](O)[C@H](Cc1ccccc1)NC(=O)c1ccc(O)c(N)c1`, in test [1], the IC50 stood at 7.6 nM. In the test with MT4 [2], this compound displayed a CCIC50 of 57 µM. In test [3], this compound registered an EC50 of 5 µM.

As for `Nc1ccc(C(=O)N[C@@H](Cc2ccccc2)C[C@H](O)[C@H](Cc2ccccc2)NC(=O)OCc2ccccc2)c(Cl)c1`, it took 6.1 nM to reach half-maximal inhibition in test [1] (IC50). This compound also had a CCIC50 in the test with MT4 [2] of 15 µM. This compound yielded an EC50 in test [3] of more than 10 µM.

As for `CC(C)(C)OC(=O)N[C@@H](Cc1ccccc1)C[C@H](O)[C@H](Cc1ccccc1)NC(=O)c1ccccc1`, half-maximal inhibition in test [1] (IC50) was put at 4.5 nM. The CCIC50 in the test on MT4 [2] amounted to 16 µM. In test [3], this compound gave an EC50 of 4.3 µM.

In test [1], `COc1cccc(C(=O)N[C@@H](Cc2ccccc2)[C@@H](O)C[C@H](Cc2ccccc2)NC(=O)OC(C)(C)C)c1` registered an IC50 of 23 nM. Further, in the test on MT4 [2], the CCIC50 came out at 19 µM. Also, in test [3], the EC50 was more than 10 µM.

The compound `COc1cc(C(=O)N[C@@H](Cc2ccccc2)C[C@H](O)[C@H](Cc2ccccc2)NC(=O)OCc2ccccc2)ccc1N` came in with a half-maximal inhibitory concentration (IC50) in test [1] of 10.5 nM. In the test on MT4 [2], this compound displayed a CCIC50 of 18 µM. In addition, in test [3], the EC50 is more than 8 µM.

`CC(C)(C)OC(=O)N[C@@H](Cc1ccccc1)C[C@H](O)[C@H](Cc1ccccc1)NC(=O)c1ccccc1O` came in with an IC50 in test [1] of 145 nM. In the test on MT4 [2], this compound showed a CCIC50 of more than 100 µM. In test [3], this compound registered an EC50 of more than 75 µM.

Regarding `CC(C)(C)OC(=O)N[C@@H](Cc1ccccc1)C[C@H](O)[C@H](Cc1ccccc1)NC(=O)c1ccc(O)c(O)c1`, the IC50 in test [1] was 4.1 nM. In the test with MT4 [2], the CCIC50 is 21 µM. In test [3], this compound had an EC50 of 2.9 µM.

Regarding `O=C(N[C@@H](Cc1ccccc1)[C@@H](O)C[C@H](Cc1ccccc1)NC(=O)c1ccccc1)OCc1ccccc1`, half-maximal inhibition in test [1] (IC50) was put at 31 nM. The CCIC50 with MT4 [2] is more than 100 µM. Besides, the EC50 in test [3] is more than 10 µM.

Take `Cc1c(N)cccc1C(=O)N[C@@H](Cc1ccccc1)[C@@H](O)C[C@H](Cc1ccccc1)NC(=O)OC(C)(C)C`: in test [1], the IC50 worked out at 2.6 nM. Also, in the test on MT4 [2], the CCIC50 was determined as 56 µM. This compound also gave an EC50 in test [3] of 1.4 µM.

Compound `CC(C)(C)OC(=O)N[C@@H](Cc1ccccc1)C[C@H](O)[C@H](Cc1ccccc1)NC(=O)c1ccc(O)cc1` showed an IC50 in test [1] of 3.3 nM. For the same compound, the CCIC50 in the test on MT4 [2] was determined as 29 µM. Further, in test [3], the response was half-maximal at 4.8 µM (EC50).

With `CC(C)(C)OC(=O)N[C@@H](Cc1ccccc1)C[C@H](O)[C@H](Cc1ccccc1)NC(=O)c1ccc(N)cc1Cl`, the IC50 in test [1] was 3.4 nM. The CCIC50 in the test on MT4 [2] is 48 µM. In test [3], this compound showed an EC50 of 2.9 µM.

`CC(C)(C)OC(=O)N[C@@H](Cc1ccccc1)C[C@H](O)[C@H](Cc1ccccc1)NC(=O)c1ccc(N)c(N)c1` came in with an IC50 in test [1] of 9.6 nM. This compound came in with a CCIC50 in the test with MT4 [2] of 81 µM. The compound further had an EC50 in test [3] of 7.6 µM.

`CC(C)(C)OC(=O)N[C@@H](Cc1ccccc1)C[C@H](O)[C@H](Cc1ccccc1)NC(=O)OC(C)(C)C` showed an IC50 in test [1] of 5.3 nM.
